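96-well plates; 48 h exposure; 5 concentrations. Endpoints by linear interpolation between flanking doses. Not reached: highest tested concentration assigned. GI50: concentration for 50% inhibition of growth.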 Activity calls are given as the source filed them. No stated cut-off is given here; in the data, active = GI50 up to about 1.1 µM and inactive = higher.
Tests used:
Assay in all cases: inhibition of tumour cell growth, NCI panel, 48 h
[1] = test system: 786-0
[2] = test system: A498
[3] = test system: ACHN
[4] = test system: IGROV-1
[5] = test system: K562
[6] = test system: KM12
[7] = test system: LOX IMVI
[8] = test system: Malme-3M
[9] = test system: NCI-H226
[10] = test system: NCI-H23
[11] = test system: NCI-H460
[12] = test system: OVCAR-4
[13] = test system: OVCAR-8
[14] = test system: SF-295
[15] = test system: SK-OV-3
[16] = test system: SNB-75
[17] = test system: SR
[18] = test system: TK-10
[19] = test system: U-251
[20] = test system: UACC-62

Compound | GI50 [1] | GI50 [2] | GI50 [3] | GI50 [4] | GI50 [5] | GI50 [6] | GI50 [7] | GI50 [8] | GI50 [9] | GI50 [10] | GI50 [11] | GI50 [12] | GI50 [13] | GI50 [14] | GI50 [15] | GI50 [16] | GI50 [17] | GI50 [18] | GI50 [19] | GI50 [20]
Nc1nc(N)nc(CC(=O)O)n1 | > 100 µM (inactive) | > 100 µM (inactive) | > 100 µM (inactive) | > 100 µM (inactive) | > 100 µM (inactive) | > 100 µM (inactive) | > 100 µM (inactive) | > 100 µM (inactive) | > 100 µM (inactive) | > 100 µM (inactive) | > 100 µM (inactive) | > 100 µM (inactive) | > 100 µM (inactive) | > 100 µM (inactive) | > 100 µM (inactive) | > 100 µM (inactive) | > 100 µM (inactive) | > 100 µM (inactive) | > 100 µM (inactive) | > 100 µM (inactive)
COc1ccc2nc3c([N+](=O)[O-])ccc(NCCN(C)C)c3c(N)c2c1 | 1.18 µM (inactive) | 2.07 µM (inactive) | 1.09 µM (active) | 1.15 µM (inactive) | 0.223 µM (active) | 0.469 µM (active) | 0.537 µM (active) | 1.34 µM (inactive) | 1.97 µM (inactive) | 1.69 µM (inactive) | 1.47 µM (inactive) | 1.24 µM (inactive) | 1.66 µM (inactive) | 1.75 µM (inactive) | 1.61 µM (inactive) | 1.08 µM (active) | 0.679 µM (active) | 1.6 µM (inactive) | 1.66 µM (inactive) | 1.82 µM (inactive)
COc1cc(OC)cc(Oc2nc3ccc(C(F)(F)F)cc3nc2-c2ccccc2)c1 | > 100 µM (inactive) | > 100 µM (inactive) | > 100 µM (inactive) | > 100 µM (inactive) | > 100 µM (inactive) | > 100 µM (inactive) | > 100 µM (inactive) | > 100 µM (inactive) | > 100 µM (inactive) | > 100 µM (inactive) | > 100 µM (inactive) | > 100 µM (inactive) | > 100 µM (inactive) | > 100 µM (inactive) | > 100 µM (inactive) | > 100 µM (inactive) | > 100 µM (inactive) | > 100 µM (inactive) | > 100 µM (inactive) | > 100 µM (inactive)
Cc1ccccc1NC(=O)c1nc(S)nc(N)c1-c1ccccc1C | > 100 µM (inactive) | > 100 µM (inactive) | > 100 µM (inactive) | > 100 µM (inactive) | > 100 µM (inactive) | > 100 µM (inactive) | > 100 µM (inactive) | > 100 µM (inactive) | > 100 µM (inactive) | > 100 µM (inactive) | > 100 µM (inactive) | > 100 µM (inactive) | > 100 µM (inactive) | > 100 µM (inactive) | > 100 µM (inactive) | 1.74 µM (inactive) | > 100 µM (inactive) | > 100 µM (inactive) | > 100 µM (inactive) | > 100 µM (inactive)
COc1cc2c(c(OC)c1OC)-c1ccc(SC)c(=O)cc1C(CC(=O)Oc1ccccc1F)C2 (stereo not given) | < 0.0075 µM (active) | 0.0269 µM (active) | 0.0834 µM (active) | 0.164 µM (active) | < 0.0075 µM (active) | < 0.0075 µM (active) | < 0.0075 µM (active) | 0.0575 µM (active) | 0.0413 µM (active) | 0.0219 µM (active) | 0.0103 µM (active) | 1.03 µM (active) | 0.0328 µM (active) | < 0.0075 µM (active) | 0.0202 µM (active) | > 7.5 µM (inactive) | < 0.0075 µM (active) | > 7.5 µM (inactive) | < 0.0075 µM (active) | < 0.0075 µM (active)
O=C(c1ccccc1)c1cccc(C(=O)c2ccccc2)c1 | > 100 µM (inactive) | > 100 µM (inactive) | > 100 µM (inactive) | > 100 µM (inactive) | > 100 µM (inactive) | 44.1 µM (inactive) | 33 µM (inactive) | 78.2 µM (inactive) | 34.3 µM (inactive) | 98.2 µM (inactive) | > 100 µM (inactive) | > 100 µM (inactive) | > 100 µM (inactive) | > 100 µM (inactive) | > 100 µM (inactive) | 82 µM (inactive) | 97.9 µM (inactive) | > 100 µM (inactive) | > 100 µM (inactive) | > 100 µM (inactive)
C/C(=N/NC(=S)Nc1ccc([N+](=O)[O-])cc1)c1cccc(/C(C)=N\NC(=S)Nc2ccc([N+](=O)[O-])cc2)n1 | 0.264 µM (active) | 1.09 µM (active) | 0.126 µM (active) | 0.569 µM (active) | 0.569 µM (active) | 0.348 µM (active) | 0.313 µM (active) | 0.515 µM (active) | 0.193 µM (active) | 0.877 µM (active) | 0.34 µM (active) | 0.959 µM (active) | 0.329 µM (active) | 0.564 µM (active) | 2.13 µM (inactive) | 3.3 µM (inactive) | 0.216 µM (active) | 0.577 µM (active) | 0.547 µM (active) | 0.493 µM (active)
CO[C@H]1C[C@H](O[C@H]2CC[C@@]3(C)[C@H](CC[C@@H]4[C@@H]3CC[C@]3(C)[C@@H](C5=CC(=O)OC5)CC[C@]43O)C2)O[C@H](C)[C@H]1O | < 0.01 µM (active) | 0.0113 µM (active) | < 0.01 µM (active) | < 0.01 µM (active) | < 0.01 µM (active) | < 0.011 µM (active) | < 0.01 µM (active) | < 0.01 µM (active) | < 0.0184 µM (active) | < 0.01 µM (active) | < 0.01 µM (active) | < 0.01 µM (active) | < 0.01 µM (active) | < 0.01 µM (active) | < 0.0113 µM (active) | < 0.0134 µM (active) | < 0.01 µM (active) | < 0.0246 µM (active) | < 0.01 µM (active) | < 0.0125 µM (active)
CSC1(SC2=NCCN2)SC2(NCCN2)S1 | 3.86 µM (inactive) | 12.6 µM (inactive) | 19 µM (inactive) | 18.6 µM (inactive) | 12.5 µM (inactive) | 2.3 µM (inactive) | 10.5 µM (inactive) | 17.6 µM (inactive) | 27.2 µM (inactive) | 16.3 µM (inactive) | 20.5 µM (inactive) | 20.4 µM (inactive) | 19.7 µM (inactive) | 27.8 µM (inactive) | 21.6 µM (inactive) | 17.3 µM (inactive) | 5.7 µM (inactive) | 6.34 µM (inactive) | 17.9 µM (inactive) | 16.9 µM (inactive)
CC(=O)OC1C(O)COC(O[C@H]2CC[C@]34C[C@]35CC[C@]3(C)C([C@@]6(C)CC[C@@H](C(C)(C)O)O6)[C@@H](O)C[C@@]3(C)C5C[C@H](OC3OCC(O)C(O)C3O)[C@H]4C2(C)C)C1OC1OCC(O)C(O)C1O (stereo not given in full) | > 100 µM (inactive) | > 100 µM (inactive) | > 100 µM (inactive) | > 100 µM (inactive) | > 100 µM (inactive) | > 100 µM (inactive) | > 100 µM (inactive) | > 100 µM (inactive) | > 100 µM (inactive) | > 100 µM (inactive) | > 100 µM (inactive) | > 100 µM (inactive) | > 100 µM (inactive) | > 100 µM (inactive) | > 100 µM (inactive) | > 100 µM (inactive) | > 100 µM (inactive) | > 100 µM (inactive) | > 100 µM (inactive) | > 100 µM (inactive)
Cc1ccc(Oc2ccc(C(=O)c3cccc(C(=O)c4ccc(Oc5ccc(C)cc5)cc4)n3)cc2)cc1 | > 100 µM (inactive) | > 100 µM (inactive) | > 100 µM (inactive) | > 100 µM (inactive) | > 100 µM (inactive) | > 100 µM (inactive) | > 100 µM (inactive) | > 100 µM (inactive) | > 100 µM (inactive) | > 100 µM (inactive) | > 100 µM (inactive) | 71.8 µM (inactive) | > 100 µM (inactive) | > 100 µM (inactive) | > 100 µM (inactive) | 42.2 µM (inactive) | > 100 µM (inactive) | > 100 µM (inactive) | > 100 µM (inactive) | > 100 µM (inactive)
CCOC(=O)c1c(-c2ccc(OC)cc2)c(C#N)c(=S)n(C2OC(COC(C)=O)C(OC(C)=O)C(OC(C)=O)C2OC(C)=O)c1C (stereo not given) | > 100 µM (inactive) | > 100 µM (inactive) | 58.2 µM (inactive) | > 100 µM (inactive) | 38.4 µM (inactive) | > 100 µM (inactive) | > 100 µM (inactive) | > 100 µM (inactive) | > 100 µM (inactive) | > 100 µM (inactive) | > 100 µM (inactive) | 20.9 µM (inactive) | > 100 µM (inactive) | > 100 µM (inactive) | > 100 µM (inactive) | 12.7 µM (inactive) | > 100 µM (inactive) | > 100 µM (inactive) | > 100 µM (inactive) | 44.5 µM (inactive)
COc1cc(CN[C@H]2CCc3cc(OC)c(OC)c(OC)c3-c3ccc(SC)c(=O)cc32)cc(OC)c1 | 0.0468 µM (active) | 0.0306 µM (active) | 0.0439 µM (active) | 0.0403 µM (active) | 0.0317 µM (active) | 0.0385 µM (active) | 0.0465 µM (active) | 0.0575 µM (active) | 0.0318 µM (active) | 0.0286 µM (active) | 0.0361 µM (active) | 0.0731 µM (active) | 0.0481 µM (active) | 0.0336 µM (active) | 0.0284 µM (active) | 0.0243 µM (active) | < 0.01 µM (active) | 0.0807 µM (active) | 0.0324 µM (active) | 0.0238 µM (active)

Source: ChEMBL document CHEMBL1201862, “PubChem BioAssay data set” (2004)
